Data: patent US12258336B2, “Preparation of seimicarbazide-sensitive amine oxidase inhibitor and use thereof” (SHANGHAI ENNOVABIO PHARMACEUTICALS CO., LTD., priority 2018, dated 2025)
Where two headings read alike, the source gives them in different places.

Tests used:
[1] = target: T1, SSAO/VAP-1 (Rattus norvegicus, UniProt O08590); test: Inhibitory activity on SSAO/VAP-1 in animal tissues after oral administration; type: in vivo; settings: 24 hours post single administration, mean ± SEM
T1 construct: from tissue; host or cells: rat plasma, brain, retina, small intestine, lung, liver, kidney
T1 sequence (O08590 1-763): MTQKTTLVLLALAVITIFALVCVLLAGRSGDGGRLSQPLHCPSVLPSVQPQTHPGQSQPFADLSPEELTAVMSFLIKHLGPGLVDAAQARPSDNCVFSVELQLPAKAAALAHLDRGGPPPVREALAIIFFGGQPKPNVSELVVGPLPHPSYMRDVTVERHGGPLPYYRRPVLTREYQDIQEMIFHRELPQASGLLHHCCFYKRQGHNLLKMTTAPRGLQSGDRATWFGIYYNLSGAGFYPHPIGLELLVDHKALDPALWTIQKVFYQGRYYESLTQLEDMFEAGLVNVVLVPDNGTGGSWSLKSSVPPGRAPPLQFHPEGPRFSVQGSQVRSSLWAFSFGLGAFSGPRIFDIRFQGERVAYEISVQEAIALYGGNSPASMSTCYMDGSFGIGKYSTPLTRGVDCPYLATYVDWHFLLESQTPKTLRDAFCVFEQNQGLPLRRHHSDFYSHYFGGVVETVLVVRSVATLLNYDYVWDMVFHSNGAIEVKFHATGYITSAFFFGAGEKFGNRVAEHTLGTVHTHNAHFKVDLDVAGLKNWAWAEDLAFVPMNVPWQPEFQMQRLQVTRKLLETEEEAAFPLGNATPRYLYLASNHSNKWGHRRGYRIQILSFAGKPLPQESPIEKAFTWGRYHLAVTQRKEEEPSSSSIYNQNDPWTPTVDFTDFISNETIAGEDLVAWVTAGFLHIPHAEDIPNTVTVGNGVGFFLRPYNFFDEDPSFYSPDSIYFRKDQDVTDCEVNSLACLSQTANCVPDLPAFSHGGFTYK
Description: MAO-Glo Assay kit (Promega, V1402) was used to determine the activity of SSAO in animal tissues. After test compounds were adminstered to the animal, SSAO enzyme activity was calculated by measuring the activity of the monoamine oxidases in the animal tissue homogenate that was insensitive to MAO inhibitors Clogyline and Pargyline. The compounds were orally administered to rats at different doses, and same volume of vehicle was orally administered to control animals. Animal plasma, brain, retina, small intestine, lung, liver, and kidney were respectively collected 24 hours after administration (the animals were perfused with PBS before the collection of small intestine, lung, liver, and kidney) and stored in a −80° C. refrigerator until analysis. Each tissue was homogenized in tissue homogenate lysis buffer (20 mM HEPES, pH 7.4, 150 mM NaCl, 1 mM EDTA, 1 mM EGTA, 1% Triton X-100 and 1× Roche Complete protease inhibitor tablet). The homogenate was centrifuged at 12000 rpm at 4° C. for 30 minutes to remove tissue fragments. 5 μL of supernatant and 2 μL of mixture of Clogyline (10 μM) and Pargyline (10 μM) were incubated for 10 minutes at room temperature. Then 2 μL of substrate from MAO-Glo assay kit was added to the mixture, and reacted at room temperature for 60 minutes. Detection reagents were added to quench the reaction according to instructions. The fluorescein data was read by Biotek Neo2. The activity of monoamine oxidase in tissues that is not sensitive to MAO inhibitors was used to represent the activity of SSAO. Percentage of SSAO activity in administered animals was compared with that of control animals to calculate the compound inhibition rate.

[2] = target: T2, rat SSAO protein (Rattus norvegicus, UniProt O08590); test: In vitro inhibitory activity on SSAO/VAP-1 (MAO-Glo assay), rat; type: biochemical
T2 construct: Eli Lilly (provided, not a catalogue product)
T2 sequence (O08590 1-763): T1 sequence (O08590 1-763)
Description: This assay was used to evaluate the in vitro inhibitory activity of the compounds on SSAO/VAP-1 of different species. Recombinant human SSAO protein, mouse SSAO protein or rat SSAO protein (provided by Eli Lilly) were used. The enzyme activity detection kit, MAO-Glo Assay kit (V1402) was purchased from Promega. Enzyme reaction buffer (50 mM HEPES, 120 mM NaCl, 5 mM KCl, 2 mM CaCl2, 1.4 mM MgCl2, 0.001% Tween-20, pH7.4) was prepared. The test compound was dissolved in DMSO and diluted by 3-fold concentration in gradient. The final concentration of test compound in a 10 μL reaction system was 1 μM to 0.05 nM when SSAO was detected. The content of DMSO in the detection reaction was 1%. After the solution of test compound in DMSO was diluted in the enzyme reaction buffer at a volume ratio of 1:25, 2.5 μL of which was added to each well of detection plate, two replicates for each concentration. 5 μL of SSAO protein diluted in the enzyme reaction buffer was added to each well, the final concentration of which was 10 nM to 80 nM in 10 μL reaction system. The mixture was incubated at room temperature for 10 minutes. 2.5 μL of the reaction substrate diluted in the enzyme reaction buffer was added to each well, the final concentration of which was 10 μM in 10 μL reaction system. After the mixture was reacted at room temperature for 120 minutes, 10 μL of detection reagent was added to each well. The reaction solution was incubated for 20 minutes at room temperature, and the plate was read with Synergy Neo 2 for detection. The value was converted into inhibition rate by the following formula: Inhibition rate=(Signalpositive−Signaltest)/(Signalpositive−Signalnegative)×100%
Signalpositive was positive control without test compound. Signalnegative was negative control without test compound and SSAO enzyme, and Signaltest was detection value of each compound at different concentrations. IC50 value was calculated by using 4 parameter curve fitting.

[3] = brain, read-out: remaining SSAO activity percentage (SSAO activity %), Brain
[4] = plasma, read-out: remaining SSAO activity percentage (SSAO activity %), Plasma
[5] = retina, read-out: remaining SSAO activity percentage (SSAO activity %), Retina

remaining activity at 0.6 mg/kg [1, 3]	remaining activity at 0.6 mg/kg [1, 4]	remaining activity at 0.6 mg/kg [1, 5]	SMILES	remaining activity at 1 mg/kg [1, 3]	remaining activity at 1 mg/kg [1, 4]	remaining activity at 1 mg/kg [1, 5]	IC50 [2]
–	–	–	COC1CC2CCC(C1)N2c1ncc(OC/C(=C/F)CN)cn1 (stereo not shown) [Example 12]	63.1 ± 12.1%	25.6 ± 3%	24.6 ± 3.5%	< 100 nM
–	–	–	NC/C(=C\F)COc1cnc(N2CCC3(CC2)COC3)nc1 [Example 3]	55.6 ± 10.5%	15.2 ± 2.6%	8.9 ± 3.2%	–
27.3 ± 1.8%	5.8 ± 2.1%	8 ± 0.8%	CC1(C)CN(c2ncc(OC/C(=C/F)CN)cn2)CCN1C1COC1 [Example 10]	–	–	–	–
